According to patent publication US10273290B2, “Hydrocarbon double-stapled stabilized HIV-1 GP41 heptad repeat domain peptides” (DANA-FARBER CANCER INSTITUTE, INC., priority 2009, dated 2019):
Entries after “also recorded” stand apart in the source; their conditions may differ. Bridge positions count the residues as written; N and C are the ends. Square brackets hold non-standard residues; d marks the D form. Peptide text beside a SMILES is read from it. S5 = C=CCCC[C@](C)(N)C(=O)O; Nle = CCCC[C@H](N)C(=O)O

Assays:
[1] = Pharmacokinetics in mice, intravenous or oral gavage; format: in vivo, Male C57/BL6 mice
Protocol: Peptides were incubated (5-10 μg) with mouse plasma at 37° C. or injected (10, mg/kg) by tail vein into male C57/BL6 mice. […] For ex vivo serum stability studies, peptide half-lives were calculated by nonlinear regression analysis of exponential decay curves plotted using Prism software (Graphpad). In vivo plasma concentrations at the indicated time points were used to calculate plasma half-life, peak plasma levels, total plasma clearance, and apparent volume of distribution using noncompartmental analysis.
Blood samples withdrawn at 30 minutes by retro-orbital bleed were subjected to quantitation using LC/MS-based blood tests.

[2] = molecular target: T1, chymotrypsin (Bos taurus, UniProt P00766); test: Protease resistance assay, chymotrypsin (LC/MS); format: in vitro ADME; conditions: pH 7.4, 0.5 chymotrypsin, peptide 25 μM
T1 construct: purchased Sigma
Protocol: The DAD signal was set to 280 nm with an 8 nm bandwidth and MSD set to scan mode with one channel at (M+2H)/2, +1 mass units and the other at (M+3H)/3, +1 mass units. Integration of each MSD signal yielded areas under the curve of >10^8 counts. Reaction samples were composed of 5 μL peptide in DMSO (1 mM stock) and 195 μL of buffer consisting of 50 mM phosphate buffer pH 7.4 containing 2 mM CaCl2. Upon injection of the 0 hr time point sample, 2 μL of 50 ng/μL chymotrypsin (Sigma) was added and the amount of intact peptide quantitated by serial injection over time. An internal control of acetylated tryptophan carboxamide at a concentration of 100 μM was used to normalize each MSD data point. A plot of MSD area versus time yielded an exponential decay curve and half-lives were determined by nonlinear regression analysis using Prism software (GraphPad).

[3] = in vivo; conditions: mouse, plasma, iv
Description: Plasma concentration, mean+standard error; ND, nondetectable.

[4] = tested on: HIV-1 strains HXBc2, ADA, and HXBc2P 3.2; test: Luciferase-based HIV-1 infectivity assay, three strains; format: cell-based
Protocol: Also the direct inhibitory activity of modified polypeptides and the antibodies targeted thereto can be quantified based upon their capacity to directly block HIV infection of CD4-positive and CCR5-expressing canine thymus cells. […] The identical experiment is performed with the amphotropic murine leukemia virus (AMLV), to monitor for any nonspecific effects of the modified polypeptides or antibodies.
(§1) HIV-1 infectivity assays were performed using known methods (Madani et al., 2007 Inhibition of human immunodeficiency virus envelope glycoprotein-mediated single cell lysis by low-molecular-weight antagonists of viral entry. J Virol, 81: 532-538; and Si et al., 2001 Envelope glycoprotein determinants of neutralization resistance in a simian-human immunodeficiency virus (SHIV-HXBc2P 3.2) derived by passage in monkeys. J Virol, 75:4208-4218; both incorporated herein by reference). […] Virus-containing supernatants were harvested 24-30 hr after transfection, filtered, aliquoted, and stored at −80° C. Target cells were seeded at a density of 6×10^3 cells/well in 96-well plates 24 hours prior to infection. Cf2Th-CD4-CCR5 cells were used for infections by viruses with the ADA, YU2, and A-MLV envelope glycoproteins, and Cf2Th-CD4-CXCR4 cells used for HXBc2, HXBc2P 3.2, and A-MLV. On the day of infection, the structured peptides (0-3 μM) were added to recombinant viruses (10,000 RT units) to a final volume of 50 μL and incubated at 37° C. for 30 min. Media was then removed and the target cells incubated with virus-peptide mixture for 48 hours at 37° C. The media was again removed and the cells lysed with 30 μL of passive lysis buffer (Promega) and three freeze-thaw cycles.
Recombinant HIV-1 bearing the envelope glycoproteins from three distinct HIV-1 strains, HXBc2, ADA, and HXBc2P 3.2, and a negative control virus bearing the amphotropic murine leukemia virus (A-MLV) envelope glycoproteins, were evaluated.

[5] = Circular dichroism, α-helical content; format: physicochemical; conditions: pH 2 versus pH 7
In short: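 Far-UV CD spectra recorded at 20° C, 190-260 nm, 0.1 cm path, 10 accumulations. Percent α-helicity from mean residue ellipticity at 222 nm: 100×[θ]222/max[θ]222, with max[θ]222=−40,000×[1−(2.5/number of residues)]. Secondary-structure fractions also estimated by CDNN curve-fitting.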

[6] = Chymotrypsin, pH 7
Description: Table printed on a drawing sheet, FIG. 17C
Title: Chymotrypsin, pH 7
First reader's note: The table also serves as the legend of the plot of fraction intact over time; the line and marker symbols are left out.

[7] = tested on: HIV-1 HXBc2 virus bearing HR1 double mutations V38A/N42T and V38E/N42S; test: HIV-1 infectivity assay, enfuvirtide-resistant HR1 double mutants; format: cell-based
Protocol: as §1

CCCC[C@H](NC(C)=O)C(=O)N[C@H](C(=O)N[C@@H](Cc1c[nH]c2ccccc12)C(=O)N[C@@]1(C)CCCC=CCCC[C@@](C)(C(=O)N[C@@H](CCC(=O)O)C(=O)N[C@H](C(=O)N[C@@H](CC(N)=O)C(=O)N[C@@H](CC(N)=O)C(=O)N[C@@H](Cc2ccc(O)cc2)C(=O)N[C@H](C(=O)N[C@@H](CO)C(=O)N[C@@H](CC(C)C)C(=O)N[C@H](C(=O)N[C@@H](Cc2c[nH]cn2)C(=O)N[C@@H](CO)C(=O)N[C@@H](CC(C)C)C(=O)N[C@H](C(=O)N[C@@H](CCC(=O)O)C(=O)N[C@@H](CCC(=O)O)C(=O)N[C@@H](CO)C(=O)N[C@@H](CCC(N)=O)C(=O)N[C@@H](CC(N)=O)C(=O)N[C@@H](CCC(N)=O)C(=O)N[C@@]2(C)CCCC=CCCC[C@@](C)(C(=O)N[C@@H](CCC(N)=O)C(=O)N[C@@H](CCC(=O)O)C(=O)N[C@@H](CC(C)C)C(=O)N[C@@H](CC(C)C)C(=O)N[C@@H](CCC(=O)O)C(N)=O)NC(=O)[C@H](CC(N)=O)NC(=O)[C@H](CCCCN)NC(=O)[C@H](CCC(=O)O)NC2=O)[C@@H](C)CC)[C@@H](C)CC)[C@@H](C)O)[C@@H](C)CC)NC(=O)[C@H](CC(=O)O)NC(=O)[C@H](Cc2c[nH]c3ccccc23)NC(=O)[C@H](CCC(=O)O)NC1=O)[C@@H](C)O [SAH-gp41(626-662)(A, F)] (Ac-[Nle]TW[S5]EWD[S5]EINNYTSLIHSLIEESQNQ[S5]EKN[S5]QELLE-NH2; staple 4-8, 28-32; N-terminus and C-terminus assumed)
level measured in the blood, fold of unmodified peptide ([1]; 10 mg/kg, blood samples at 30 minutes): more than 6 fold
in vivo stability, in words ([1]; intravenous, 10 mg/kg, plasma concentrations of intact peptide): marked in vivo stability
fold decrease in clearance ([1]; noncompartmental analysis): about 10 fold
fold enhancement in area under the curve (AUC) ([1]; noncompartmental analysis, serial blood draws): about 10 fold
intact peptide in blood/plasma after oral administration ([1]; oral gavage, 30 minutes after administration): measurable and dose-responsive levels; also recorded: measurable and dose-responsive plasma concentrations
Half-Life [2]: 5.02 h
Cmax [3]: 140 µg/mL
anti-HIV-1 (anti-viral) activity, in words [4]: potent anti-viral activity
CL: 1.0 mL/min/kg
α-helicity, in words [5]: even greater α-helicity at pH 2 than at pH 7
Half-Life [6]: 5.58 h
functional activity against HR1 double-mutant HIV-1, in words [7]: dose-responsively suppressed HIV-1 infectivity
